Here are results for eleven compounds from ChEMBL document CHEMBL5608235, “Tricyclic Benzo[1,3]oxazinyloxazolidinones as Potent Antibacterial Agents against Drug-Resistant Pathogens” (J Med Chem, 2024).

For data set [1], the system named is Mycobacterium tuberculosis. Kind of data set: Antibacterial activity against Mycobacterium tuberculosis H37Rv assessed as inhibition of bacterial growth incubated for 7 days by alamar blue assay. The following applies: 168 h, time 7 day. It counts as functional.
Data set [2] deals with Staphylococcus aureus. Put plainly: Antibacterial activity against Staphylococcus aureus ATCC25923 assessed as inhibition of bacterial growth incubated for 18 hrs by microdilution broth assay. The data set is classed as functional.
Data set [3] relates to Enterococcus faecalis. Put plainly: Antibacterial activity against Enterococcus faecalis ATCC29212 assessed as inhibition of bacterial growth incubated for 18 hrs by microdilution broth assay. The data set is classed as functional.
For the next data set, the system named is Bacillus subtilis. Put plainly: Antibacterial activity against Bacillus subtilis ATCC6633 assessed as inhibition of bacterial growth incubated for 18 hrs by microdilution broth assay. The data set is classed as functional.
In data set [4] the test system is Staphylococcus epidermidis. Put plainly: Antibacterial activity against Staphylococcus epidermidis ATCC12228 assessed as inhibition of bacterial growth incubated for 18 hrs by microdilution broth assay. It counts as functional.
The nature of data set [5]: Cytotoxicity against African green monkey Vero cells incubated for 48 hrs by MTT assay. The data set is classed as toxicity, cell-based, Chlorocebus sabaeus.
Data set [6] concerns Staphylococcus aureus. Kind of data set: Antibacterial activity against methicillin resistant Staphylococcus aureus clinical isolate 20-1 assessed as inhibition of bacterial growth incubated for 7 days by alamar blue assay. The conditions noted are these: clinical isolate 20-1, 168 h, time 7 day. It counts as functional.
The subject of data set [7] is Staphylococcus aureus. Kind of data set: Antibacterial activity against methicillin resistant Staphylococcus aureus clinical isolate 20-2 assessed as inhibition of bacterial growth incubated for 7 days by alamar blue assay. The data set is classed as functional. The following applies: clinical isolate 20-2, 168 h, time 7 day.
Data set [8] relates to Staphylococcus epidermidis. Kind of data set: Antibacterial activity against methicillin resistant Staphylococcus epidermidis clinical isolate 20-1 assessed as inhibition of bacterial growth incubated for 7 days by alamar blue assay. The conditions noted are these: clinical isolate 20-1, 168 h, time 7 day. The data set is classed as functional.
The subject of data set [9] is Staphylococcus epidermidis. Put plainly: Antibacterial activity against methicillin resistant Staphylococcus epidermidis clinical isolate 20-2 assessed as inhibition of bacterial growth incubated for 7 days by alamar blue assay. The following applies: clinical isolate 20-2, 168 h, time 7 day. The data set is classed as functional.
The test system of data set [10] is Staphylococcus aureus. Put plainly: Antibacterial activity against vancomycin intermediate Staphylococcus aureus ATCC700699 assessed as inhibition of bacterial growth incubated for 7 days by alamar blue assay. It counts as functional. The following applies: ATCC700699, 168 h, time 7 day.
For another data set, the system named is Enterococcus. Put plainly: Antibacterial activity against vancomycin resistant Enterococcus clinical isolate 20-1 assessed as inhibition of bacterial growth incubated for 7 days by alamar blue assay. The data set is classed as functional. The conditions noted are these: clinical isolate 20-1, 168 h, time 7 day.
The test system of data set [11] is Staphylococcus aureus. Put plainly: Antibacterial activity against Linezolid resistant Staphylococcus aureus clinical isolate 20-1 assessed as inhibition of bacterial growth incubated for 7 days by alamar blue assay. The conditions noted are these: clinical isolate 20-1, 168 h, time 7 day. It counts as functional.
For data set [12], the system named is Staphylococcus aureus. Kind of data set: Antibacterial activity against Linezolid resistant Staphylococcus aureus clinical isolate 20-2 assessed as inhibition of bacterial growth incubated for 7 days by alamar blue assay. The data set is classed as functional. The conditions noted are these: clinical isolate 20-2, 168 h, time 7 day.
The test system of data set [13] is Enterococcus faecalis. Kind of data set: Antibacterial activity against Linezolid resistant Enterococcus faecalis clinical isolate 20-1 assessed as inhibition of bacterial growth incubated for 7 days by alamar blue assay. The data set is classed as functional. The following applies: clinical isolate 20-1, 168 h, time 7 day.
In data set [14] the test system is Enterococcus faecalis. Kind of data set: Antibacterial activity against Linezolid resistant Enterococcus faecalis clinical isolate 20-2 assessed as inhibition of bacterial growth incubated for 7 days by alamar blue assay. The data set is classed as functional. The conditions noted are these: clinical isolate 20-2, 168 h, time 7 day.
A short description of data set [15]: Metabolic stability in ICR mouse liver microsomes assessed as compound remaining at 10 uM incubated for 60 mins in absence of NADPH by LC-MS/MS analysis. The data set is classed as ADME, Microsome. The following applies: read-out: Stability.
Data set [16] is described as follows: Metabolic stability in human liver microsomes assessed as compound remaining at 10 uM incubated for 60 mins in absence of NADPH by LC-MS/MS analysis. The data set is classed as ADME, Microsome. The following applies: read-out: Stability.
Data set [17] in a line: Metabolic stability in ICR mouse liver microsomes assessed as substrate remaining at 10 uM incubated for 60 mins in presence of NADPH by LC-MS/MS analysis. The data set is classed as ADME, Microsome. The following applies: read-out: Stability.
The nature of data set [18]: Metabolic stability in human liver microsomes assessed as substrate remaining at 10 uM incubated for 60 mins in presence of NADPH by LC-MS/MS analysis. The data set is classed as ADME, Microsome. The conditions noted are these: read-out: Stability.

In brackets after ≈: the same amount, converted by molar mass.

Regarding `COc1cc(-c2cc3c(cc2F)O[C@H]2[C@H](CNC(C)=O)OC(=O)N2C3)ccn1`, the MIC came to 6.51 µg/mL (≈ 16.8 µM) in data set [1]; 4 µg/mL (≈ 10.3 µM) in the data set on Staphylococcus aureus [2]; 1 µg/mL (≈ 2.58 µM) with Enterococcus faecalis [3]; 0.5 µg/mL (≈ 1.29 µM) in the data set with Bacillus subtilis; 2 µg/mL (≈ 5.16 µM) in data set [4]. Moreover, in data set [5], the half-inhibitory concentration (IC50) at 48 h amounted to 36 µg/mL (≈ 92.9 µM).
`CC(=O)NC[C@H]1OC(=O)N2Cc3cc(-c4ccc(-c5nnn(C)n5)nc4)c(F)cc3O[C@@H]12`: the MIC in data set [1] turned out to be 0.54 µg/mL (≈ 1.23 µM); with Staphylococcus aureus [2], 0.125 µg/mL (≈ 0.284 µM); in the data set on Enterococcus faecalis [3], 0.5 µg/mL (≈ 1.14 µM); with Bacillus subtilis it was 0.125 µg/mL (≈ 0.284 µM).
Consider `CC(=O)NC[C@@H]1OC(=O)N2Cc3cc(-c4ccn5ncnc5c4)c(F)cc3O[C@@H]12`, for which the minimum inhibitory concentration (MIC) in [1] worked out at 1.43 µg/mL (≈ 3.6 µM); with Staphylococcus aureus [2], 8 µg/mL (≈ 20.1 µM); in the data set with Enterococcus faecalis [3] it was 0.5 µg/mL (≈ 1.26 µM); with Bacillus subtilis, 0.5 µg/mL (≈ 1.26 µM); in data set [4] it was 2 µg/mL (≈ 5.03 µM). Further, the half-maximal inhibitory concentration (IC50) at 48 h in [5] was over 64 µg/mL.
For the compound `N#Cc1ccc(-c2c(F)cc3c(c2F)CN2C(=O)O[C@@H](CN)[C@@H]2O3)cn1`, the MIC in [1] was 0.5 µg/mL (≈ 1.4 µM); in the data set with Staphylococcus aureus [2], over 64 µg/mL; in the data set on Enterococcus faecalis [3], over 64 µg/mL; with Bacillus subtilis, over 64 µg/mL; in [4] it was 64 µg/mL (≈ 179 µM). The same compound came in with an IC50 at 48 h in [5] of 59 µg/mL (≈ 165 µM).
Turning to `COC(=O)NC[C@@H]1OC(=O)N2Cc3cc(-c4ccc(-c5nnn(C)n5)nc4)c(F)cc3O[C@@H]12`, the MIC in [1] was 0.49 µg/mL (≈ 1.08 µM); with Staphylococcus aureus [2], 4 µg/mL (≈ 8.78 µM); in the data set with Enterococcus faecalis [3] it was 0.5 µg/mL (≈ 1.1 µM); in the data set on Bacillus subtilis it was 0.125 µg/mL (≈ 0.274 µM); in data set [4], 0.125 µg/mL (≈ 0.274 µM); in the data set on Staphylococcus aureus [6], 0.25 µg/mL (≈ 0.549 µM). The MIC in the data set with Staphylococcus aureus [7] is 0.25 µg/mL (≈ 0.549 µM); in data set [8], 0.125 µg/mL (≈ 0.274 µM); in data set [9], 0.125 µg/mL (≈ 0.274 µM); in the data set on Staphylococcus aureus [10], 0.5 µg/mL (≈ 1.1 µM); in the data set with Enterococcus, 0.5 µg/mL (≈ 1.1 µM); in the data set on Staphylococcus aureus [11], 8 µg/mL (≈ 17.6 µM). Besides, the MIC in the data set with Staphylococcus aureus [12] was found to be 8 µg/mL (≈ 17.6 µM); in the data set on Enterococcus faecalis [13] it was 1 µg/mL (≈ 2.2 µM); in the data set on Enterococcus faecalis [14] it was 1 µg/mL (≈ 2.2 µM). The compound further had a half-inhibitory concentration (IC50) at 48 h in data set [5] of 37 µg/mL (≈ 81.2 µM). Besides, the remaining at 1 h, 10 µM in data set [15] amounted to 104%; in data set [16] it was 120%; in [17], 102%; in data set [18], 110%.
On to `CC(=O)NC[C@@H]1OC(=O)N2Cc3cc(-c4ccc5c(c4)NC(=O)CO5)c(F)cc3O[C@@H]12`, for which the MIC in [1] is 0.9 µg/mL (≈ 2.11 µM); with Staphylococcus aureus [2], 32 µg/mL (≈ 74.9 µM); in the data set with Enterococcus faecalis [3] it was 1 µg/mL (≈ 2.34 µM); in the data set with Bacillus subtilis, 16 µg/mL (≈ 37.4 µM); in data set [4] it was 2 µg/mL (≈ 4.68 µM). Besides, in data set [5], 40 µg/mL (≈ 93.6 µM) corresponded to half-maximal inhibition (IC50 at 48 h).
As for `COc1ccc(-c2c(F)cc3c(c2F)CN2C(=O)O[C@@H](CNC(C)=O)[C@@H]2O3)cn1`, the minimal inhibitory concentration (MIC) in data set [1] was 6.75 µg/mL (≈ 16.7 µM); in the data set on Staphylococcus aureus [2], 8 µg/mL (≈ 19.7 µM); in the data set with Enterococcus faecalis [3], 0.5 µg/mL (≈ 1.23 µM); in the data set with Bacillus subtilis it was 0.032 µg/mL (≈ 0.0789 µM); in data set [4], 0.5 µg/mL (≈ 1.23 µM).
With `COC(=O)NC[C@@H]1OC(=O)N2Cc3cc(-c4ccc(C(C)=O)cc4)c(F)cc3O[C@@H]12`, the minimal inhibitory concentration (MIC) in data set [1] is 1.74 µg/mL (≈ 4.2 µM); in the data set on Staphylococcus aureus [2] it was over 64 µg/mL; with Enterococcus faecalis [3], 0.5 µg/mL (≈ 1.21 µM); in the data set with Bacillus subtilis, 0.125 µg/mL (≈ 0.302 µM); in data set [4], 0.5 µg/mL (≈ 1.21 µM).
In the case of `Cc1ncc2n1-c1ccc(Cl)cc1C(c1ccccc1F)=NC2` [MIDAZOLAM], the remaining at 1 h, 10 µM was determined as 48.9% in data set [17] and 62% in [18].
For `CC(=O)NC[C@@H]1OC(=O)N2Cc3cc(-c4ccnc(C#N)c4)c(F)cc3O[C@@H]12`, the minimum inhibitory concentration (MIC) in data set [1] was 1.85 µg/mL (≈ 4.84 µM); in the data set with Staphylococcus aureus [2], 4 µg/mL (≈ 10.5 µM); in the data set on Enterococcus faecalis [3], 1 µg/mL (≈ 2.62 µM); in the data set on Bacillus subtilis, 0.25 µg/mL (≈ 0.654 µM); in data set [4], 1 µg/mL (≈ 2.62 µM). Further, in [5], the IC50 at 48 h is over 64 µg/mL.
Turning to `CC(=O)NC[C@@H]1OC(=O)N2Cc3c(cc(F)c(-c4ccc(C#N)cc4)c3F)O[C@@H]12`, the minimum inhibitory concentration (MIC) was 3.41 µg/mL (≈ 8.54 µM) in data set [1]; 2 µg/mL (≈ 5.01 µM) in the data set on Staphylococcus aureus [2]; 0.25 µg/mL (≈ 0.626 µM) in the data set with Enterococcus faecalis [3]; 0.032 µg/mL (≈ 0.0801 µM) with Bacillus subtilis; 1 µg/mL (≈ 2.5 µM) in [4].
